According to patent publication US10596264B2, “Peptides with viral infection enhancing properties and their use” (Genethon, priority 2011, dated 2020):
Where no end group is shown, it is not given here.

Assays:
human CD34+ cells = format: cell-based
hCD34+ cells = conditions: for Cytotoxic effect of the peptides: hCD34+ cells transduced with RD114TR-LV or GALVTR-MLV, peptide 12 μg/ml
lentiviral vectors = conditions: Wurm et al., 2010; cited from earlier work
293T cells = assay: Transfection of 293T cells with pEGFP-C1 in presence of peptides; format: cell-based; conditions: peptide 24 μg/ml; 1 μg pEGFP-C1; 48 h
Method: FIG. 11. Transfection of 293T cells with pEGFP in presence of LAH4-A4, LAH4-L1 or K2-L10A12-K2 peptides. pEGFP-C1 (1 μg) was mixed in 50 μl of 150 mM NaCl solution with either 3 μg, 4.5 μg, 6 μg or 9 μg of LAH4-A4 or 6 μg of LAH4-L1 or 6 μg of K2-L10A12-K2. Next, the DNA/peptide mix was diluted in 200 μl of DMEM without FCS and loaded onto cell monolayers. 3 hours post-transfection, the medium was replaced with DMEM containing 10% FCS. 48 h later, transfection efficiencies were estimated by monitoring GFP expression using flow cytometry. Data are the average of two independent experiments performed in duplicate with SD.
293T cells (1.5×10E5/well) were plated in 48-well plates the day before transfection. For transfection, 1 μg of pEGFP-C1 was mixed with the desired amount of peptide in 50 μl of 150 mM NaCl solution, vortexed and incubated 15 min at room temperature. Next, the DNA/peptide mix was diluted in 200 μl of DMEM without FCS and loaded onto cell monolayers. 3 hours post-transfection, the medium was replaced with DMEM containing 10% FCS. 48 h later, transfection efficiency was estimated by monitoring GFP expression using flow cytometry.

[1] = test system: human hematopoietic cells engraftment; conditions: hCD34+ cells transduced in presence of 12 μg/ml LAH4-L1

With HHALLAHALHLLALLALHLAHALHHA (LAH8-L1) the “Transduction efficiency compared with LAH4-L1 (in words)” value (human CD34+ cells) was “detrimental”.

With KKALLAAALAALLALAHHLLALLKKA (LAH2-A4) the “Transduction efficiency compared with LAH4-A4 (in words)” value (human CD34+ cells) was “not functional”.

For KALLHAALAHLLALAHHLLALLKKA (LAH4-A4-K1N), the “hCD34+ transduction level compared to LAH4-A4” value (human CD34+ cells) was 60%.

For “KKALLHAALAHLLALAHHLLALLKKA-NH2 [LAH4-A4]”, the “Cytotoxicity (mortality, 7-AAD)” value (hCD34+ cells) was “no apparent cytotoxicity”, the “Cytotoxicity (mortality, 7-AAD) in dose-response experiment” value (hCD34+ cells) was “no apparent cytotoxicity” and the “Cytotoxic effect of the peptides” value (hCD34+ cells) was “did not observe any cytotoxic effect”.

In the case of “KKALLHALLAHLAALLHALLAHLKKA-NH2 [LAH4-A5]”, the “Cytotoxic effect of the peptides” value (hCD34+ cells) is reported as “did not observe any cytotoxic effect”.

With “KKALLAKALKLLALLALKLAKALKKA-NH2 [LAK4-L1]” the “Cytotoxicity (mortality, 7-AAD)” value (hCD34+ cells) was “not the consequence of a strong cytotoxic effect”.

With “KKALLHAALAHLLPLAHHLLALLKKA (LAH4-A4-P14)” the “Lentiviral transduction abolished relative to LAH4-A4” value (human CD34+ cells) was 80%.

For KKALLAHALHLLALLALHLAHALA (LAH4-L1-dKC), the “Transduction efficiency compared with LAH4-L1 (in words)” value (human CD34+ cells) was “as efficiently as LAH4-L1”.

For “RRALLAHALHLLALLALHLAHALRRA-NH2 [LAH4-L1-R]”, the “Cytotoxicity (mortality, 7-AAD)” value (hCD34+ cells) was “no apparent cytotoxicity”.

In the case of “GIHKQKEKSRLQGGVLVNEILNHMKRATQIPSYKKLIMY (SEVI) [human Semen Enhancer of Viral Infection, fragment of the human prostatic acid phosphatase; not amidated]”, the “Ability to promote the transduction of lentiviral vectors” value (lentiviral vectors) is given as “able to promote the transduction of lentiviral vectors”.

In the case of “LAH4-L4: L series peptide with hydrophilic angle of 140°; b61: LAH4-L4 peptide of SEQ ID NO:36; possibly LAH4-L4iso is meant (KKALLALALHHLALLAHLLALHLKKA; LAH4-L4) [L series peptide with hydrophilic angle of 140°; possibly LAH4-L4iso is meant]”, the “Capacity to promote transduction of hCD34+ cells with GALVTR-LVs, ranking within L and A series of isomers” value (human CD34+ cells) is reported as “most efficient”.

In the case of “KKKLLHAALAHLLALAHHLLALLKKA (LAH4-A4-K3N)”, the “Transduction efficiency compared with LAH4-A4 (in words)” value (human CD34+ cells) is reported as “as efficient as LAH4-A4”.

With “KKALLHAALAHLLALAHHLLALLKK (LAH4-A4-d1aa)” the “Transduction efficiency compared with LAH4-A4 (in words)” value (human CD34+ cells) was “slightly decreases the efficiency”.

For KKLLHAALAHLLALAHHLLALLKK (LAH4-A4-d2aa), the “hCD34+ transduction level compared to LAH4-A4” value (human CD34+ cells) was 30%.

In the case of “KKALLHLALLHAALLAHHLALALKKA-NH2 [LAH4-L4ISO]”, the “Cytotoxic effect of the peptides” value (hCD34+ cells) is reported as “did not observe any cytotoxic effect”.

With “KKLLLHALLAHLLALLHHLLALLKKL (LAH4-A4-Leu)” the “Transduction efficiency compared with LAH4-A4 (in words)” value (human CD34+ cells) was “two times less potent than LAH4-A4”.

For “KKALLAAALAALLALAAALLALLKKA (K2-L10A12-K2)”, the “Transfection of 293T cells with GFP plasmid” value (293T cells) was “unable to promote cell transfection”, the “Transduction efficiency compared with LAH4-A4 (in words)” value (human CD34+ cells) was “still able to promote some lentiviral transduction” and the “hCD34+ transduction level compared to LAH4-A4” value (human CD34+ cells) was 17%.

For ALLAHALHLLALLALHLAHALKKA (LAH4-L1-dKN), the “Transduction efficiency compared with LAH4-L1 (in words)” value (human CD34+ cells) was “not detectable”.

For “KKALLHAALAHLLALAAALLALLKKA-NH2 [LAH2-A6]”, the “Cytotoxicity (mortality, 7-AAD)” value (hCD34+ cells) was “no apparent cytotoxicity”.

For “ALLHAALAHLLALAHHLLALLKKA-NH2 [LAH4-A4-dKN]”, the “Cytotoxicity (mortality, 7-AAD)” value (hCD34+ cells) was “not the consequence of a strong cytotoxic effect”.

For “ALLAHALHLLALLALHLAHALA (LAH4-L1-dK) [LAH4-L 1-dK]”, the “Transduction efficiency compared with LAH4-L1 (in words)” value (human CD34+ cells) was “not detectable”.

For “KKALLAHALHLLALLALHLAHALKKA-NH2 [LAH4-L1]”, the “Cytotoxic effect (mortality, 7-AAD)” value (hCD34+ cells) was “did not observe any cytotoxic effect”, the “Cytotoxic effect of the peptides” value (hCD34+ cells) was “did not observe any cytotoxic effect” and the “Cytotoxic or deleterious effect on human immune system reconstitution” value [1] was “did not observed any cytotoxic or deleterious effect”.
